Results published in patent publication US20240226049A1, “METHODS OF TREATMENT USING BEMPEDOIC ACID” (Esperion Therapeutics, Inc., priority 2023, published 2024).

Tests used:
[1] = tested on: statin-intolerant patients with or at high risk of CVD; test: CLEAR OUTCOMES trial (Example 1): effect on LDL-cholesterol, hsCRP, other lipids and glycaemic biomarkers; assay type: in vivo, human
From the text: (§1) The CLEAR OUTCOMES trial was a randomized, placebo-controlled, double-blind trial that enrolled patients at 1250 sites in 32 countries. An independent Data Monitoring Committee reviewed safety and efficacy data during the trial.
(§2) Patients 18 to 85 years of age were eligible for enrollment if they met either of two criteria for increased cardiovascular risk, a prior cardiovascular event (secondary prevention) or clinical features that placed them at high risk for a cardiovascular event (primary prevention). (Nicholls S. Lincoff A M, Bays H E, et al. Rationale and design of the CLEAR-outcomes trial: Evaluating the effect of bempedoic acid on cardiovascular events in patients with statin intolerance. Am Heart J. 2021 May; 235:104-112) All patients provided written informed consent. Patients had to report statin intolerance due to an adverse effect that started or increased during statin therapy and resolved or improved after statin therapy was discontinued. Patients could be enrolled if they tolerated a very low average daily statin dose (e.g., an average daily dose of rosuvastatin <5 mg, atorvastatin <10 mg, simvastatin <10 mg, lovastatin <20 mg, pravastatin <40 mg, fluvastatin <40 mg, or pitavastatin <2 mg). Other lipid-lowering therapies were permitted, including ezetimibe, niacin, bile acid resins, fibrates, and/or proprotein convertase subtilisin kexin type 9 (PCSK9) inhibitors. Full inclusion and exclusion criteria are provided in Nicholls et al. (Am Heart J. 2021).
(§3) Eligible patients entered a 4-week run-in period during which patients were treated with single-blind placebo. If patients were intolerant to placebo treatment or if adherence was <80% by tablet count, they were not eligible for randomization. Patients who successfully completed the run-in period were randomly assigned in a 1:1 ratio to receive bempedoic acid at an oral dose of 180 mg or matching placebo, administered daily. Beginning 6 months after enrollment, the central laboratory notified the investigator if the patient's LDL-cholesterol level was ≥25% higher than baseline. These patients were counseled on healthy dietary guidelines and reminded to take all lipid-regulating medications. If repeat testing confirmed that LDL-cholesterol value met the threshold criteria, the provider could adjust the lipid-lowering treatment regimen per standard of care and local guidelines.
This was an event-driven trial designed to provide at least 90% power to detect a 15% relative risk reduction for the primary composite end point at an overall two-sided significance level of 0.05. The trial required a minimum of 1620 primary composite events with ≥24 months of follow-up for all patients and at least 810 first key secondary end points. The average treatment duration was estimated to be 42 months and a lost-to-follow-up rate of 1% per year. Assuming a 3.59% annual event rate in the placebo group, enrollment of 12,600 patients was required, subsequently amended to 14,000. There were no interim efficacy analyses. A hierarchical approach was prespecified to evaluate sequentially each of the six key secondary efficacy end points with statistical significance at each step required to test the next hypothesis, thereby preserving the study-wise Type I error rate at 5%. All analyses were based on the intent-to-treat principle. The primary efficacy end point was analyzed using Cox proportional hazards model with treatment as a factor to generate the hazard ratio (HR) and 95% confidence interval (CI). The p-value was obtained from a log-rank test.

[2] = tested on: statin-intolerant patients with or at high risk of CVD; test: CLEAR OUTCOMES trial (Example 1): adverse events and safety laboratory findings; assay type: in vivo, human
From the text: as §1, §2, §3

[3] = baseline mean 139.0 mg/dL, full population
[4] = at any visit, repeated and confirmed, N = 7001

How did the “placebo-subtracted reduction in LDL-cholesterol after 6 months of treatment” value [1, 3] turn out when CC(C)(CCCCCC(O)CCCCCC(C)(C)C(=O)O)C(=O)O [Bempedoic Acid, Bempedoic acid] was run?
Its value is 29.2 mg/dL.

And the “placebo-subtracted reduction in LDL-cholesterol after 6 months of treatment, percent” value [1, 3]?
The value was 21.1%.

What about the “Change from baseline to month 12 in HbA1C in patients with inadequately controlled type 2 diabetes mellitus, Difference” value ([1]; bempedoic acid vs placebo) of the same compound?
Its value is −0.03%.

And the “Change from baseline to Month 6 in HbA1c (%), All patients” value ([1]; observed mean ± SD)?
Its value is −0.003 ± 0.6^ %.

And the “Change from baseline to Month 6 in HbA1c (%), Inadequately Controlled Diabetes at Baseline” value ([1]; observed mean ± SD)?
The value was −0.20 ± 1.0%.

And the “Change from baseline to Month 12 in HbA1c (%), All patients” value ([1]; observed mean ± SD)?
The value was 0.04 ± 0.74%.

What about the “Change from baseline to Month 12 in HbA1c (%), Inadequately Controlled Diabetes at Baseline” value ([1]; observed mean ± SD) of the same compound?
The value was −0.06 ± 1.3%.

What about the “decrease in LDL-C as compared to baseline” value ([1]; prior to initial administration as baseline) of the same compound?
The value was “about 21%”.

What about the “time-averaged reduction in LDL-cholesterol, percent” value ([1]; vs placebo, over the trial, full population) of the same compound?
The value was 15.9%.

What about the “New onset diabetes in patients with normoglycemia at baseline, %” value ([2]; 180 mg oral daily) of the same compound?
Its value is 5.5%.

And the “New onset diabetes in patients with pre-diabetes at baseline, %” value ([2]; 180 mg oral daily)?
The value was 19.5%.

What about the “Adjudicated tendon rupture, %” value ([2]; 180 mg oral daily, N = 7001) of the same compound?
Its value is 1.2%.

What about the “Adverse event leading to drug discontinuation, %” value ([2]; 180 mg oral daily, N = 7001) of the same compound?
Its value is 11.0%.

And the “Any muscle disorder, %” value ([2]; 180 mg oral daily, N = 7001)?
Its value is 15.0%.

What about the “Any treatment emergent adverse event, %” value ([2]; 180 mg oral daily, N = 7001) of the same compound?
The value was 86.3%.

And the “Atrial fibrillation, %” value ([2]; 180 mg oral daily, N = 7001)?
Its value is 3.3%.

And the “Cholelithiasis, %” value ([2]; 180 mg oral daily, N = 7001)?
Its value is 2.2%.

And the “Discontinuation of treatment due to myalgia, %” value ([2]; 180 mg oral daily, N = 7001)?
Its value is 1.8%.

And the “Elevated hepatic enzymes, %” value ([2]; 180 mg oral daily, N = 7001)?
Its value is 4.5%.

And the “Gout, %” value ([2]; 180 mg oral daily, N = 7001)?
Its value is 3.1%.

What about the “Hypoglycemia, %” value ([2]; 180 mg oral daily, N = 7001) of the same compound?
Its value is 4.3%.

What about the “Malignancies, %” value ([2]; 180 mg oral daily, N = 7001) of the same compound?
Its value is 4.7%.

What about the “Metabolic acidosis, %” value ([2]; 180 mg oral daily, N = 7001) of the same compound?
Its value is 0.2%.

And the “Myalgia, %” value ([2]; 180 mg oral daily, N = 7001)?
The value was 5.6%.

What about the “Neurocognitive disorders, %” value ([2]; 180 mg oral daily, N = 7001) of the same compound?
Its value is 0.8%.

And the “Serious treatment emergent adverse event, %” value ([2]; 180 mg oral daily, N = 7001)?
The value was 25.4%.

What about the “Tendinopathies, %” value ([2]; 180 mg oral daily, N = 7001) of the same compound?
The value was 1.7%.

And the “Change from baseline in creatinine levels” value ([2]; after 6 months)?
Its value is 0.05 ± 0.2 mg/dL.

What about the “Change from baseline in uric acid levels” value ([2]; after 6 months) of the same compound?
The value was 0.76 ± 1.2 mg/dL.

What about the “Creatine kinase levels >5x ULN (repeated and confirmed), %” value ([2]; at any visit, N = 7001) of the same compound?
Its value is 0.1%.

What about the “Creatine kinase levels >5x ULN (single occurrence), %” value ([2]; at any visit, N = 7001) of the same compound?
Its value is 0.6%.

What about the “Alanine aminotransferase level >3 times ULN, %” value [2, 4] of the same compound?
Its value is 1.2%.

And the “Aspartate aminotransferase level >3 times ULN, %” value [2, 4]?
Its value is 1.1%.

And the “Premature discontinuation of study drug” value ([2]; bempedoic acid-treated patients, full population)?
The value was 29.1%.

And the “Worsening hyperglycemia, %” value ([2]; in patients with diabetes at baseline)?
Its value is 22.7%.

What about the “New onset diabetes in patients without diabetes at baseline, %” value ([2]; investigator-reported, 180 mg oral daily) of the same compound?
Its value is 16.1%.

What about the tolerability of treatment ([2]; rates of discontinuation for any reason similar to placebo) of the same compound?
The tolerability of treatment was “well tolerated”.
